Laboratory results as given in patent publication US9034862B2, “Compositions and methods for the treatment of cancer” (priority 2011, dated 2015).

Tests used:
[1] = test system: Normal lung fibroblasts (MRC5) and cancerous lung (A549) cells; assay: Selective killing of cancer cells, MRC5 vs A549 (MTT); type: cell-based, human; conditions: 72 h
Procedure: (§1) Solutions of the platinum compounds were freshly prepared in sterile PBS before use and their concentrations quantitated by atomic absorption spectroscopy. […] The cells were then treated with 20 μL of 3-(4,5-dimethylthiazol-2-yl)-2,5-diphenyltetrazolium bromide (MTT) (5 mg/mL in PBS) and incubated for 4 h. The medium was removed, 100 μL of DMSO was added to the cells, and the absorbance of the purple formazan was recorded at 560 nm using a BioTek Synergy HT multi-detection microplate plate reader. Each condition was performed in triplicate and three independent experiments were carried out for each cell line.

[2] = test system: human cervix carcinoma HeLa cells; assay: MTT assay, HeLa; type: cell-based
Procedure: (§6) Solutions of the platinum compounds were freshly prepared in sterile PBS before use and their concentrations quantitated by atomic absorption spectroscopy. Cells were seeded on a 96-well plate (1200 cells per well for cancer cells and 1800 cells per well for the normal lung fibroblasts) in 100 μL RPMI or DMEM media, and incubated for 24 h. […] The cells were then treated with 20 μL of 3-(4,5-dimethylthiazol-2-yl)-2,5-diphenyltetrazolium bromide (MTT) (5 mg/mL in PBS) and incubated for 4 h. The medium was removed, 100 μL of DMSO was added to the cells, and the absorbance of the purple formazan was recorded at 560 nm using a BioTek Synergy HT multi-detection microplate plate reader. Each condition was performed in triplicate and three independent experiments were carried out for each cell line.
(§7) Human prostate carcinoma (PC3) and human cervix carcinoma (HeLa) cells were obtained from the ATCC. The human lung carcinoma cell line A549 was kindly provided by David E. Root (Whitehead Institute for Biomedical Research). Cells were incubated at 37° C. in 5% CO2 and grown in RPMI (PC3) or DMEM (A549 and HeLa) medium supplemented with 10% fetal bovine serum and 1% penicillin/streptomycin. Cells were passaged every 3 to 4 days and restarted from the frozen stock upon reaching passage number 20.
(§8) Solutions of the platinum agents were freshly prepared in sterile PBS before use and the platinum content was quantitated by AAS. Cells were seeded on 96 well plates (1200 cells per well) in 100 μL RPMI or DMEM media\ and incubated for 24 hours. […] The cells were then treated with 20 μL of 3-(4,5-dimethylthiazol-2-yl)-2,5-diphenyltetrazolium bromide (MTT) (5 mg/mL in PBS) and incubated for 4 h. The medium was removed, 100 μL of DMSO were added to the cells, and the absorbance of the purple formazan was recorded at 570 nm using a BioTek Synergy HT multi-detection microplate plate reader. For each cell line, three independent experiments were carried out in triplicate.

calf thymus DNA = assay: Ethidium bromide DNA-binding competition, Scatchard analysis; parameters: key: competitive (type A); non-competitive (type D); both (type B); No inhibition of ethidium binding is labeled as type C
Source text: Using this approach, it is possible to determine whether the inhibition of ethidium binding is competitive (type A), non-competitive (type D), or both (type B). No inhibition of ethidium binding is labeled as type C.

[3] = test system: human lung carcinoma A549; assay: MTT assay, A549; type: cell-based
Procedure: as §6, §7, §8

[4] = test system: GLuc expression in A549 cells; assay: Transcription assay, globally platinated pGLuc, A549; type: cell-based, human; conditions: for transcription level (normalized against unplatinated plasmid): Pt/DNA ratio of […] for phenanthriplatin
Procedure: (§2) Transfection of transcription probes into A549 and HT29 cells with the pGLuc plasmid was carried out using liposomal transfecting agents. Determination of expression levels was tested by Luciferase assays monitored by a luminometer (J. Am. Chem. Soc. 2010, 132, 7429-7435). A549 cells were plated in 96-well plates at 2,000 cells/well and HT29 cells were plated in 96-well plates at 6,000 cells/well. After 48 h incubation (at ˜30% confluence), cells were transfected with 50 ng of platinated plasmids in 25 μL Opti-MEM and 0.125 μL Lipofectamine 2000, and subsequently 50 μL of antibiotics-free DMEM supplemented with 10% FBS. After 2 h, the cells were washed with medium and 100 μL of fresh medium was added. The experiment was carried out in quadruplicate.
(§3) GLuc activity was monitored using a luminescence plate reader (Synergy 2, BioTek, Winooski, Vt., USA). A 10 μL volume of medium at different time points (12, 24, 36, 48, 60 h) was transferred into opaque white 96-well plates, and 25 μL of GLuc assay solution (10 μM colelenterazine (NanoLight Technologies, Pinetop, Ariz., USA) in 2.5 mM acidified methanol (100 mM HCl), buffer (10 mM Tris-HCl pH 7.8, 1 mM EDTA, 0.6 M NaCl)) was added by the automatic injector of the instrument.
(§4) In another embodiment, A549 or HT29 cells were transfected using the platinated transcription probes, and transcription levels were investigated by determining GLuc expression as measured by […] following addition of coelenterazine as a substrate for the exported enzyme. The emission intensities were normalized against unplatinated plasmids as a control. Transcription profiles were obtained by plotting normalized levels of GLuc expression against platination levels (Pt/plasmid ratio) at five different time points. […] An increase in D0 value at different time points represents restoration of transcription.

human bone sarcoma U2OS = assay: MTT assay, U2OS; type: cell-based; conditions: 72-h incubation
Procedure: (§5) Human colon carcinoma HT29, human breast carcinoma MCF7, human bone sarcoma U2OS, human prostate carcinoma PC3, and human cervix carcinoma HeLa cells were obtained from the ATCC. A2780/CP70 cisplatin-resistant human ovarian cancer cells were kindly provided by Dr. Stephen B. Howell (Moores UCSD Cancer Center) and the human lung carcinoma cell lines A549 and normal lung fibroblast MRC5 by David E. Root (Whitehead Institute for Biomedical Research). Cells were incubated at 37° C. in 5% CO2 and grown in RPMI (HT29, A2780/CP70, and PC3) or DMEM (A549, MRC5, HeLa, MCF7, and U2OS) medium supplemented with 10% fetal bovine serum and 1% penicillin/streptomycin. Cells were passed every 3 to 4 days and restarted from a frozen stock upon reaching pass number 20.
as §1

pGLuc plasmid = assay: Platination of pGLuc plasmid; type: biochemical
Procedure: The resulting mixtures were dialyzed (molecular weight cut-off 3.5 kDa) against ddH2O overnight at 4° C. with five changes of ddH2O. The rb values (bound Pt/nucleotide) were determined by UV/Vis and atomic absorption spectroscopy.
In one embodiment, the ratio of bound platinum per plasmid was determined by measuring the Pt concentration by atomic absorption spectroscopy and the DNA concentration by UV/Vis spectroscopy.

[5] = test system: Human colon carcinoma HT29; assay: MTT assay, HT29; type: cell-based
Procedure: as §5, §1

[6] = test system: human breast carcinoma MCF7; assay: MTT assay, MCF7; type: cell-based; conditions: Table 3, MCF7 Breast, 72-h incubation
Procedure: as §5, §1

[7] = test system: human prostate carcinoma PC3; assay: MTT assay, PC3; type: cell-based
Procedure: as §6, §7, §8

[8] = test system: normal lung fibroblast MRC5; assay: MTT assay, MRC5; type: cell-based, human
Procedure: as §5, §1

[9] = test system: GLuc expression in HT29 cells; assay: Transcription assay, globally platinated pGLuc, HT29; type: cell-based, human; conditions: for transcription level (normalized against unplatinated plasmid): Pt/DNA ratio of […] for phenanthriplatin
Procedure: as §2, §3, §4

NTera2 = assay: MTT assay, NTera2; type: cell-based, human; conditions: Table 3, NTera2 Testis, 72-h incubation
Procedure: as §6

N.N.[Cl][Pt][Cl] [cisplatin]
ratio of IC50 values in healthy MRC5 cells to those in cancerous A549 cells [1]: 0.9 | IC50 ([2]; Table 3, HeLa Cervix, 72-h incubation): 1.77 ± 0.72 µM | IC50 ([2]; Table 5, HeLa, 72-h incubation): 1.77 ± 0.72 µM | IC50 ([2]; Table 11 (Example 3), HeLa Cervix, 72 h): 1.78 ± 0.15 µM | type of inhibition of ethidium binding (Scatchard) (calf thymus DNA; 12-h incubation period): type C | type of inhibition of ethidium binding (Scatchard) (calf thymus DNA; 1 min incubation period): type C | IC50 ([3]; Table 3, A549 Lung, 72-h incubation): 6.75 ± 0.38 µM | IC50 ([3]; Table 4, A549 human lung carcinoma, 72 h incubation): 6.62 ± 0.4 µM | IC50 ([3]; Table 5, A549, 72-h incubation): 6.75 ± 0.38 µM | IC50 ([3]; Table 11 (Example 3), A549 Lung, 72 h): 6.47 ± 0.74 µM | transcription level (normalized against unplatinated plasmid) ([4]; A549, 12 h): 25.8% | D0 (Pt lesions per plasmid required to reduce transcription levels to 37% of control) ([4]; A549, 12 h after transfection): 16.8 Pt/plasmid | D0 (Pt lesions per plasmid required to reduce transcription levels to 37% of control) ([4]; A549, 24 h after transfection): 20.0 Pt/plasmid | D0 (Pt lesions per plasmid required to reduce transcription levels to 37% of control) ([4]; A549, 36 h after transfection): 29.5 Pt/plasmid | D0 (Pt lesions per plasmid required to reduce transcription levels to 37% of control) ([4]; A549, 48 h after transfection): 36.4 Pt/plasmid | transcription level (normalized against unplatinated plasmid) ([4]; A549, 60 h): 60.2% | D0 (Pt lesions per plasmid required to reduce transcription levels to 37% of control) ([4]; A549, 60 h after transfection): 42.6 Pt/plasmid | IC50 (human bone sarcoma U2OS; Table 3, U2OS Bone): 7.15 ± 0.25 µM | IC50 (human bone sarcoma U2OS; Table 5, U2OS): 7.15 ± 0.25 µM | Pt adducts per plasmid (pGLuc plasmid; rf 0.00074, 16 h at 37° C.): 4.64 Pt adducts per plasmid | rb (bound Pt/nucleotide) (pGLuc plasmid; rf 0.00074, 16 h at 37° C.): 0.0006 | Pt adducts per plasmid (pGLuc plasmid; rf 0.0014, 16 h at 37° C.): 11.67 Pt adducts per plasmid | rb (bound Pt/nucleotide) (pGLuc plasmid; rf 0.0014, 16 h at 37° C.): 0.0015 | Pt adducts per plasmid (pGLuc plasmid; rf 0.0028, 16 h at 37° C.): 20.65 Pt adducts per plasmid | rb (bound Pt/nucleotide) (pGLuc plasmid; rf 0.0028, 16 h at 37° C.): 0.0026 | Pt adducts per plasmid (pGLuc plasmid; rf 0.0056, 16 h at 37° C.): 43.35 Pt adducts per plasmid | rb (bound Pt/nucleotide) (pGLuc plasmid; rf 0.0056, 16 h at 37° C.): 0.0054 | IC50 ([5]; Table 3, HT29 Colorectal, 72-h incubation): 15.9 ± 1.5 µM | IC50 ([5]; Table 5, HT29, 72-h incubation): 15.9 ± 1.5 µM | IC50 [6]: 11.6 ± 0.6 µM | IC50 ([7]; Table 3, PC3 Prostate, 72-h incubation): 4.56 ± 0.52 µM | IC50 ([7]; Table 11 (Example 3), PC3 Prostate, 72 h): 3.93 ± 0.52 µM | IC50 ([8]; Table 4, MRC5 normal lung fibroblast, 72 h incubation): 6.18 ± 0.16 µM | IC50 ([8]; Table 5, MRC5, 72-h incubation): 6.18 ± 0.16 µM | transcription level (normalized against unplatinated plasmid) ([9]; HT29, 12 h): 15.6% | D0 (Pt lesions per plasmid required to reduce transcription levels to 37% of control) ([9]; HT29, 12 h after transfection): 9.9 Pt/plasmid | D0 (Pt lesions per plasmid required to reduce transcription levels to 37% of control) ([9]; HT29, 24 h after transfection): 14.5 Pt/plasmid | D0 (Pt lesions per plasmid required to reduce transcription levels to 37% of control) ([9]; HT29, 36 h after transfection): 19.2 Pt/plasmid | D0 (Pt lesions per plasmid required to reduce transcription levels to 37% of control) ([9]; HT29, 48 h after transfection): 22.1 Pt/plasmid | transcription level (normalized against unplatinated plasmid) ([9]; HT29, 60 h): 42.9% | D0 (Pt lesions per plasmid required to reduce transcription levels to 37% of control) ([9]; HT29, 60 h after transfection): 30.0 Pt/plasmid | IC50 (NTera2): 0.14 ± 0.03 µM
